# Test results reported in publication PMC11984924, “Dipeptidic Phosphonates: Potent Inhibitors of Pseudomonas aeruginosa Elastase B Showing Efficacy in a Murine Keratitis Model” (Advanced Science, 2025).
# Assays:
# [1] = test system: P. aeruginosa strain PA54 keratitis; test: Murine Pseudomonas keratitis model; format: in vivo, mouse
# Protocol: Based on our previous findings on target engagement in a murine pneumonia model in combination with a standard‐of‐care antibiotic,^[ [30] ^] we applied the dipeptide (R)‐30 alone and in combination with the commonly used antibiotic meropenem.^[ [9] ^] The keratitis model was carried out using aged female C57BL/6 mice, as previously published.^[ [37] ^] For infection, 5*10^7 colony forming units (CFUs) of PA54 were topically administered on denuded, mechanically harmed corneas. Treatments with meropenem, (R)‐30, or meropenem in combination with (R)‐30 were performed every 8 h for 72 h (first treatment at 6 h post infection). Each of the in total nine 5 µL‐doses contained 1 mg/mL (R)‐30 and/or 0.5 mg mL^−1 meropenem. Sham‐treated mice received 5 µL‐doses of the vehicle (0.9% saline and 1% DMSO) at the time points indicated above, and uninfected eyes received no treatment. […]
# (§1) Animals: The animal experiments were approved by Saarland University’s Animal Welfare Committee (Application number: 17/2021) and conducted in accordance with German and European recommendations and guidelines for the ethical use of animals. The laboratory animals were all C57BL/6N female eight to eleven months old mice. Keeping in specific pathogen-free conditions was provided. Unlimited access to water and show was secured.
# (§2) Temperature was closely maintained around 22 °C and relative air humidity around 50%. Light and darkness alternated at twelve-hour intervals. All laboratory animals were purchased from Charles River GmbH, Sulzfeld, Germany.
# P. aeruginosa: The P. aeruginosa strain PA54 was employed to induce an experimental bacterial keratitis in the aforementioned C57BL/6N mice. The strain PA54 was isolated from human infections and collected at Saarland University Medical Center’s Institute for Medical Microbiology and Hygienics (IMMH) in 2009. According to Magiorakos et al., PA54 can be classified as multidrug-resistant due to its lacking sensibility to the anti-pseudomonal cephalosporins ceftazidime and cefepime, the anti-pseudomonal fluoroquinolones ciprofloxacin and levofloxacin, the […] fosfomycin, and the aminoglycoside gentamicin.[18] The minimum inhibitory concentration (MIC) of the reserve antibiotic meropenem (meropenem trihydrate, Sigma) was 1 µg/mL (sensitivity limit = 2 µg/mL). The exoU- and exoT-positivity of the PA54 strain, foregrounds its keratitogenic potential.
# Inoculum: The P. aeruginosa strain PA54 is routinely grown overnight on blood agar (TrypticaseTM Soy Agar, 5% sheep blood, BD, Heidelberg, Germany) at 37 °C. To obtain a stationary phase cell inoculum, a freshly grown colony was inoculated in tryptic soy broth (TSB; BD, Heidelberg, Germany) and cultured at 37 °C and 150 rounds per minute (rpm) for 16 h.
# Then, 2 mL were centrifuged at 13,200 rpm at rt for 2 min, whereupon cells were resuspended in spent medium to an OD600 of 10 (∼1×1010 CFU/mL). Short storage on ice followed, before the infection procedure started.
# Infection Procedure: Anesthesia and infection were performed as previously published. Briefly, fentanyl (Hameln Pharma Plus GmbH, Hameln, Germany), midazolam hydrochloride (Midazolam-Hameln, 5 mg/mL, Hameln pharma GmbH, Germany) and medetomidine hydrochloride (Domitor, Orion Corporation, Espoo, Finland) were dissolved in 0.9% NaCl (NaCl 0.9%, Ecotainer 500 mL, B. Braun, Melsungen, Germany), dosed at 0.05 mg/kg, 5 mg/kg and 0.5 mg/kg body weight, respectively, and applied by intraperitoneal injection. Analgesia (Carprofen, 5 mg/kg body weight, Zoetis Deutschland GmbH, Berlin, Germany) was ap plied subcutaneously. Lacrimation was stopped with 10 µL of a 0.6% acetylcysteine solution (Pharmacy of Saarland University Hospitals, Homburg, Germany). Local analgesia (0.5% proxymetacaine hydrochloride, Proparakain -POS Augentropfen, Ursapharm Arzneimitt el GmbH, Saarbrücken, Germany) was eye-dropped and removed after 60 seconds. The blunt […]
# [2] = test system: P. aeruginosa strain PA54; test: MIC against strain PA54; format: cell-based; conditions: Pseudomonas aeruginosa, read-out: minimum inhibitory concentration (MIC)
# Protocol: The analysis of fold change and copy numbers was conducted through Microsoft Excel, and the data were graphically represented using GraphPad Prism 9.
# Table S17: Primers and probes applied in this study (designs were carried out using Geneious Prime bioinformatics […]
# Gene Forward primer Reverse Primer Probe Description […]
# lasB GAACA CAG CCAA aeruginosa […]
# GACTTC CCTG CCGA sigma factor RpoS […]
# rho AAC GTTG TCATCGG termination factor
# as §1, §2
# P. aeruginosa: The P. aeruginosa strain PA54 was employed to induce an experimental bacterial keratitis in the aforementioned C57BL/6N mice. The strain PA54 was isolated from human infections and collected at Saarland University Medical Center’s Institute for Medical Microbiology and Hygienics (IMMH) in 2009. […]
smiles,measurement,setting,value
"C[C@@H](O)[C@H]1C(=O)N2C(C(=O)O)=C(S[C@@H]3CN[C@H](C(=O)N(C)C)C3)[C@H](C)[C@H]12 [meropenem, reference compound]",IL‐1β levels in eye homogenate,"[1]; day 3 post infection, compared to sham treatment / uninfected eyes",almost on the level of this cytokine seen in uninfected eyes
same,KC levels in eye homogenate,"[1]; day 3 post infection, compared to uninfected eyes",significantly higher amounts of this chemokine
same,reduction of bacterial load in the eye (median),"[1]; day 3 post infection, whole-eye homogenates",64 fold
same,median clinical keratitis score,"[1]; day three post infection, topical every 8 h for 72 h, 1 mg/mL (R)-30 and/or 0.5 mg/mL meropenem",3
same,MIC,[2],1 µg/mL
